Assays:
LXRβ [1] = target: T1, LXRβ (Homo sapiens, UniProt P55055); test: TR-FRET coactivator assay; assay type: binding
T1 construct: gene NR1H2
T1 sequence (P55055 1-460): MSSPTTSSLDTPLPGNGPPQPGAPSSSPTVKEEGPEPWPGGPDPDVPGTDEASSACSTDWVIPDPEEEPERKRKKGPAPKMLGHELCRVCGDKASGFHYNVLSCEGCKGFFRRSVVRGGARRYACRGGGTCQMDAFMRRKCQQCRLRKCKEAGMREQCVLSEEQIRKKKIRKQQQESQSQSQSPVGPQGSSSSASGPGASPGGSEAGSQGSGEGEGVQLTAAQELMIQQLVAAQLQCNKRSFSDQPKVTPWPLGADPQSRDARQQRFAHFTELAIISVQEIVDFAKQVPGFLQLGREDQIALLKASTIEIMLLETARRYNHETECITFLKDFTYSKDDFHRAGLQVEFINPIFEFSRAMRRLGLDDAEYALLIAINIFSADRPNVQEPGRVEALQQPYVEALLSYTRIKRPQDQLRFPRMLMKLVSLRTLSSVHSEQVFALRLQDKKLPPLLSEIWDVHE

LXRβ [2] = target: T1, LXRβ; test: TR-FRET coactivator assay (positive control, parent agonist); assay type: binding

EC50 (LXRβ [1]) [nM]	EC50 (LXRβ [2]) [nM]	SMILES
31 ± 4.4	–	Cc1ncsc1-c1ccc(CNC(=O)[C@@H]2C[C@@H](O)CN2C(=O)[C@@H](NC(=O)COCCOCCOCCOCCOCCNC(=O)Cc2cccc(OCCCN(Cc3cccc(C(F)(F)F)c3Cl)CC(c3ccccc3)c3ccccc3)c2)C(C)(C)C)cc1 [compound 3, GW3965-PEG5-VH032]
–	20 ± 7.2	O=C(O)Cc1cccc(OCCCN(Cc2cccc(C(F)(F)F)c2Cl)CC(c2ccccc2)c2ccccc2)c1 [GW3965]
